Measurements reported in PubChem BioAssay (NCI).
Several values for one entry are separate records, joined by “and”; a condition that tells them apart may be missing. Equal entries are not always repeated.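 Exposure lasted 48 hours, with cells grown in 96-well plates and compounds tested at five concentrations. Abbreviation: GI50, concentration required for 50% inhibition of growth. TGI denotes the concentration required for complete inhibition of growth.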

Assays:
Assay in all cases: DTP human tumour cell line panel, 48 h
UACC-257 melanoma = tested on: UACC-257 melanoma
CAKI-1 renal = tested on: CAKI-1 renal
SK-MEL-2 melanoma = tested on: SK-MEL-2 melanoma
SNB-75 CNS = tested on: SNB-75 CNS
HCC-2998 colon = tested on: HCC-2998 colon
RPMI-8226 leukemia = tested on: RPMI-8226 leukemia
ACHN renal = tested on: ACHN renal
UO-31 renal = tested on: UO-31 renal
IGROV1 ovarian = tested on: IGROV1 ovarian
MALME-3M melanoma = tested on: MALME-3M melanoma

Row | Compound | GI50 (UACC-257 melanoma) | TGI (UACC-257 melanoma) | GI50 (CAKI-1 renal) | TGI (CAKI-1 renal) | GI50 (SK-MEL-2 melanoma) | TGI (SK-MEL-2 melanoma) | GI50 (SNB-75 CNS) | TGI (SNB-75 CNS) | GI50 (HCC-2998 colon) | TGI (HCC-2998 colon) | GI50 (RPMI-8226 leukemia) | TGI (RPMI-8226 leukemia) | GI50 (ACHN renal) | TGI (ACHN renal) | GI50 (UO-31 renal) | TGI (UO-31 renal) | GI50 (IGROV1 ovarian) | TGI (IGROV1 ovarian) | GI50 (MALME-3M melanoma) | TGI (MALME-3M melanoma)
1 | O=S(=O)(Nc1ncccn1)c1ccc(N=Nc2ccc(O)c3ncccc23)cc1 | 14.8 µM | 45.2 µM | 3.82 µM | 21 µM | 18.3 µM | 43.6 µM | 2010 nM | 11 µM | 12.2 µM | 29 µM | 3940 nM | 25.2 µM | 5.18 µM | 24.4 µM | 1.94 µM | 12.4 µM | 4.37 µM | 33 µM |  | 
2 | CC1=NN(C(=O)c2ccccc2O)C(=O)/C1=C/c1ccc([N+](=O)[O-])cc1 | 2.34 µM | > 100 µM | 0.549 µM | > 30.8 µM | 0.97 µM |  | 53.2 nM | > 100 µM |  |  | 784 nM | > 100 µM | 0.545 µM | > 100 µM | 0.358 µM | 1.88 µM | 0.44 µM |  | 0.895 µM | > 100 µM
3 | Cc1c2cc[nH]c(=O)c2c(C)c2c1[nH]c1cc(OCCN3CCN(C)CC3)ccc12 | 2.51 µM | 7.72 µM | 2.17 µM | 9.55 µM | 1.52 µM | 3.43 µM | 1230 nM | 6.81 µM | 1.26 µM | 7.24 µM | 1630 nM | 5 µM | 0.473 µM | 3.83 µM | 1.06 µM | 3.09 µM | 0.799 µM | 7.59 µM |  | 
4 | O=[As](O)(O)c1ccc(NCc2ccccc2)cc1 |  | > 100 µM |  | > 100 µM |  | > 100 µM |  | > 100 µM |  |  |  | > 100 µM |  | > 100 µM |  | > 100 µM |  | > 100 µM |  | > 100 µM
5 | O=C(O)CN(c1ccccc1)S(=O)(=O)c1ccc(NC(=O)c2ccccc2)cc1 |  | > 100 µM |  | > 100 µM |  | > 100 µM |  | > 100 µM |  |  |  | > 100 µM |  | > 100 µM |  | > 100 µM |  | > 100 µM |  | > 100 µM
6 | O=C(c1ccc2ccccc2c1O)N1CCCCC1 |  | > 100 µM |  | > 100 µM |  | > 100 µM |  | > 100 µM |  | > 100 µM |  | 95.9 µM |  | > 100 µM |  | > 100 µM |  | > 100 µM |  | 
7 | COc1ccc(S(=O)(=O)NC(C)C(=O)O)cc1 (stereo not given) |  | > 100 µM |  | > 100 µM |  | > 100 µM |  | > 100 µM |  |  |  | > 100 µM |  | > 100 µM |  | > 100 µM |  | > 100 µM |  | > 100 µM
8 | O=C(c1ccccc1)c1c(NCC(O)CN2CCCC2)n(Cc2ccccc2)c(=O)n(Cc2ccccc2)c1=O (stereo not given) | 21 µM | 42.3 µM | 24.3 µM | 59 µM | 20.5 µM | 39 µM | 16900 nM | 47.3 µM | 20.5 µM | 36.5 µM | 19300 nM | 48.4 µM | 22.3 µM | 54.7 µM | 18.8 µM | 40.2 µM | 21.6 µM | 52.8 µM |  | 
9 | COc1cc2c(cc1O)C=NCC2 |  | > 100 µM |  | > 100 µM |  | > 100 µM |  | > 100 µM |  |  |  | > 100 µM |  | > 100 µM |  | > 100 µM |  | > 100 µM |  | > 100 µM
10 | C#CCC[C@@H]1O[C@@]1(C)CC/C=C(\C)CC/C=C/C=O |  | 69.7 µM |  |  |  | > 100 µM |  | > 100 µM |  |  |  | 56.4 µM |  | > 100 µM |  | > 100 µM |  | 49.6 µM |  | 48.3 µM
11 | CN1CCc2cc3c(cc2C1O)OCO3 (stereo not given) |  | 10.8 µM and > 100 µM | 14.8 µM and > 100 µM | 30.6 µM and > 100 µM |  | 13 µM and > 100 µM |  | 17.9 µM and > 100 µM | 18.8 µM and > 100 µM | 36.9 µM and > 100 µM |  | > 100 µM | 19.2 µM and > 100 µM | 36.2 µM and > 100 µM | 17.4 µM and > 100 µM | 37.4 µM and > 100 µM | 10.7 µM and > 100 µM | 33.2 µM and > 100 µM |  | 
12 | COc1cc(CCc2cccnc2)cc(OC)c1OC |  | > 100 µM |  | > 100 µM |  |  |  | > 100 µM |  |  |  | > 100 µM |  | > 100 µM |  | > 100 µM |  | > 100 µM |  | > 100 µM
13 | CCSc1nnc2c(-c3ccccc3)n[nH]c2n1 |  | > 100 µM |  | > 100 µM |  | > 100 µM |  | > 100 µM |  |  |  | > 100 µM |  | > 100 µM |  | > 100 µM |  | > 100 µM |  | 
14 | CC(C)(C)OC(=O)NCCNC1=CC(=O)c2nc3ccccc3c3ccnc1c23 | 23.5 µM | 75.5 µM | 28.4 µM | 72.3 µM | 28.4 µM | 85.1 µM | 17800 nM | 42.6 µM |  |  |  |  | 21.5 µM | 76.8 µM | 28.8 µM | > 100 µM | 24.6 µM | 77.3 µM | 32 µM | 81.8 µM
15 | COc1cc2c(cc1OC)C13CCN4C=C5CCOC6CC(=O)N2C1C6C5CC43 (stereo not given) |  | > 100 µM |  | > 100 µM |  | > 100 µM |  | > 100 µM |  |  |  | > 100 µM |  | > 100 µM |  | > 100 µM |  | > 100 µM |  | > 100 µM
16 | O=C1c2ccccc2C2(O)Nc3cc(O)ccc3C12O (stereo not given) |  |  |  | > 100 µM |  | > 100 µM |  | > 100 µM |  |  |  | > 100 µM |  | > 100 µM |  |  |  | > 100 µM |  | > 100 µM
